The structures appear in SMILES notation.

The target in the first assay is T1, Fatty acid synthase (Homo sapiens, UniProt P49327). In words: Inhibition of FAS.
Target sequence in this assay (P49327 whole entry): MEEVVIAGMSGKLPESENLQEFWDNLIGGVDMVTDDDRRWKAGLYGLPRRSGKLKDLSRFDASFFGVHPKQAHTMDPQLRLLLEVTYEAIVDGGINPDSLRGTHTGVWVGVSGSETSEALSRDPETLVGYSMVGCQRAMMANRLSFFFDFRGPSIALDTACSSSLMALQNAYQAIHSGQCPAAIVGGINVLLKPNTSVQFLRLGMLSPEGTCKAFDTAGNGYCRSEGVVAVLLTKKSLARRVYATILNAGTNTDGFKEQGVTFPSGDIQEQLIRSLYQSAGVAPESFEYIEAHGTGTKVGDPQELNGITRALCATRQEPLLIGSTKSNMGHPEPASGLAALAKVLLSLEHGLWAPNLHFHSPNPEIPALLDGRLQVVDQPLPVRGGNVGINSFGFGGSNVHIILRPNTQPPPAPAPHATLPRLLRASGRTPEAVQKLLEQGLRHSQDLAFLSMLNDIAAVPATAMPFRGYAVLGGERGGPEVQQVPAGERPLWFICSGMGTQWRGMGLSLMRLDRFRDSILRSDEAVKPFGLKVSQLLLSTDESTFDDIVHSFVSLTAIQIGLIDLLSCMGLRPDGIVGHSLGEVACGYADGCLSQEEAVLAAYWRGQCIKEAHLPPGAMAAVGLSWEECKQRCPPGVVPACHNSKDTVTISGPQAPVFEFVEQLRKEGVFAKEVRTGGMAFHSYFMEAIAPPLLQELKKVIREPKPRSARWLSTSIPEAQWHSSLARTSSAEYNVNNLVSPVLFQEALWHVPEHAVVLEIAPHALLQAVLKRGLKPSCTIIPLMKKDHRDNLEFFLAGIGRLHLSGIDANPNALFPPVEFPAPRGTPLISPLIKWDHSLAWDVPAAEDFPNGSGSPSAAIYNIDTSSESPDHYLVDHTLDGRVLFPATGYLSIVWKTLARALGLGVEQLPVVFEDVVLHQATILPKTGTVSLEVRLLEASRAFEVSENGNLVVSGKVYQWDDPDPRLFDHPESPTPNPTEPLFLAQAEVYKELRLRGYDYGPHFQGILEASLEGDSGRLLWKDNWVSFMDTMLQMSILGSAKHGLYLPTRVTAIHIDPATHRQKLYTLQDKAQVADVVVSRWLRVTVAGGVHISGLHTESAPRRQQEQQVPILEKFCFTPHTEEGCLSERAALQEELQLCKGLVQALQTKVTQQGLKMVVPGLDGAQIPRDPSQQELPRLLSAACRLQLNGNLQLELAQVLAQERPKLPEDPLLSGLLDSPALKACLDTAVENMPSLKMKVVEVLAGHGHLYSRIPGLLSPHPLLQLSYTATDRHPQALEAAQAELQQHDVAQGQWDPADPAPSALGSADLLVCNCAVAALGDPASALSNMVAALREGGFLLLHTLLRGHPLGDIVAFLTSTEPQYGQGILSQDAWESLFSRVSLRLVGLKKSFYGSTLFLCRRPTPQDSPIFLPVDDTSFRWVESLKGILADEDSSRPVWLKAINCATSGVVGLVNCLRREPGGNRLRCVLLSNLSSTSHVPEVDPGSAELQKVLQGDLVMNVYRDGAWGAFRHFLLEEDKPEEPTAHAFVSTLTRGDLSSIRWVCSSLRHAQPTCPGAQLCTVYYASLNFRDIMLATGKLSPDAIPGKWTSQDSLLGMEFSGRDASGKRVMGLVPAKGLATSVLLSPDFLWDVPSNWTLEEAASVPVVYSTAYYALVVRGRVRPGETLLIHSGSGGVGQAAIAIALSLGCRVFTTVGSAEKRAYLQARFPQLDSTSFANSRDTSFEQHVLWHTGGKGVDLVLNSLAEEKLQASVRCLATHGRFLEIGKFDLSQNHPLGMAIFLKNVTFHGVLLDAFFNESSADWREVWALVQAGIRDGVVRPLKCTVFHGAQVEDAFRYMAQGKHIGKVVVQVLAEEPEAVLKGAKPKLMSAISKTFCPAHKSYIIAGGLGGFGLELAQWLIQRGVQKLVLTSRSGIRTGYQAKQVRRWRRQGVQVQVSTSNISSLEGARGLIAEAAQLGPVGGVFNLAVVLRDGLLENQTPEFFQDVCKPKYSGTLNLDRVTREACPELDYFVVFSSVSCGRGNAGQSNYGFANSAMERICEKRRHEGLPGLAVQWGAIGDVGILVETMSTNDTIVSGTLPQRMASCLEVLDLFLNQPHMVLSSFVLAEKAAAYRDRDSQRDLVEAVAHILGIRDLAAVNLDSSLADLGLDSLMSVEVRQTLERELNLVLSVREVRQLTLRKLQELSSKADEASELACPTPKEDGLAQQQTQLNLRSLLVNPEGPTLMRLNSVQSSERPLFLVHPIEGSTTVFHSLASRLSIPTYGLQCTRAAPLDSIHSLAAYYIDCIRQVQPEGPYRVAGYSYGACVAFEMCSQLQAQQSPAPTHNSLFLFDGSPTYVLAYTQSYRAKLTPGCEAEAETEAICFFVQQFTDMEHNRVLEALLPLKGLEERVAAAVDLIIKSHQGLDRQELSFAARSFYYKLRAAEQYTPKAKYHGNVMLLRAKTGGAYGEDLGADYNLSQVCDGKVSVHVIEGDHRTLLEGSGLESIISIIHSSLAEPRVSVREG
One may read the IC50 as the midpoint of a concentration-inhibition curve. A low value points to greater potency in that assay. `CCCC(=O)C1=C(O)C(C)(C)C(O)=C(CC2=C(O)C(C)(C)C(O)=C(C(=O)CC)C2=O)C1=O` returned an IC50 of 56.1 µM. Same read-out and setting: in the case of `O=c1cc(-c2ccc(O)c(O)c2)oc2cc(O)cc(O)c12` [LUTEOLIN] it was 62.5 µM. Consider `CCC(=O)C1=C(O)C(C)(C)C(O)=C(CC2=C(O)C(C)(C)C(O)=C(C(=O)CC)C2=O)C1=O`, for which half-maximal inhibition (IC50) was put at 60.2 µM. With `CCCC(=O)c1c(O)cc(OC)c(C)c1O`, the IC50 is 49.1 µM.

Turning to `CCC(=O)C1=C(O)C(C)(C)C(O)=C(CC2=C(O)C(C)(C)C(O)=C(C(C)=O)C2=O)C1=O`, the IC50 is 71.7 µM. The molecule `CCCC(=O)C1=C(O)C(C)C(O)=C(CC2=C(O)C(C)(C)C(O)=C(C(C)=O)C2=O)C1=O` (stereo unspecified) displayed an IC50 of 28.7 µM. In the case of `CCCC(=O)C1=C(O)CC(O)=C(CC2=C(O)C(C)(C)C(O)=C(C(C)=O)C2=O)C1=O`, the IC50 was determined as 29.7 µM. On to `O=c1c(O)c(-c2ccccc2)oc2ccccc12` [FLAVONOL], for which the IC50 is greater than 100 µM. The same measure, in the same setting: as for `C/C=C/C/C=C/CCC(=O)[C@H]1O[C@H]1C(N)=O` [CERULENIN], the figure is 13 µM; as for `Oc1cc(O)c2c(c1)O[C@H](c1ccc(O)c(O)c1)[C@H](O)C2` [(-)-EPICATECHIN], greater than 100 µM; as for `CCCC(=O)C1=C(OC)C(C)C(O)=C(CC2=C(O)C(C)(C)C(O)=C(C(=O)CCC)C2=O)C1=O` (stereo unspecified), 32.6 µM. In turn, `CCCC(=O)c1c(O)c(CC2=C(O)C(C)(C)C(O)=C(C(C)=O)C2=O)c(O)c(CC2=C(O)C(C)(C)C(O)=C(C(=O)CC)C2=O)c1O` came in with an IC50 of 31 µM. Molecule `CCCC(=O)C1=C(O)C(C)C(O)=C(CC2=C(O)C(C)(C)C(O)=C(C(=O)CC)C2=O)C1=O` (stereo unspecified) displayed an IC50 of 23.1 µM. For the molecule `CCCC(=O)c1c(O)c(C)c(O)c(Cc2c(O)c(C)c(O)c(C(=O)CCC)c2O)c1O`, the concentration for half-maximal inhibition (IC50) was 25.4 µM.

A further assay concerns the target T1, Fatty acid synthase. In words: Inhibition of FAS at 100 uM.
Target sequence in this assay (P49327 whole entry, looked up): as the sequence (P49327 whole entry) above
The term inhibition denotes the drop in the measured response relative to a control, in per cent. Low readings indicate a response near the control, high ones a response far below the control. Molecule `O=c1c(O)c(-c2ccccc2)oc2ccccc12` [FLAVONOL] gave an inhibition of 6.5%. For the molecule `Oc1cc(O)c2c(c1)O[C@H](c1ccc(O)c(O)c1)[C@H](O)C2` [(-)-EPICATECHIN], the inhibition stood at 10.2%.

For the origin of these results see ChEMBL document CHEMBL1149347, “Fatty acid synthase inhibitory activity of acylphloroglucinols isolated from Dryopteris crassirhizoma” (Bioorg Med Chem Lett, 2006).
